Reference: patent US5686109A, “Antipyretic analgesic composition” (priority 1993, dated 1997)

Test system: SD strain rats (pain threshold of right hind leg)
Assay: Pain Removing Effect (Randall-Selitto method, heat edema)
Format: in vivo, rat
Settings: 2 h after administration, mean ± standard error, n=10 rats
Experimental: Test substances and doses:
IPA and IBP were respectively suspended in a 0.5% aqueous solution of methylcellulose (MC) to a concentration of 8 mg/ml. The test suspensions for groups 2 and 3 were prepared by mixing the IPA suspension and IBP suspension together in a proportion of 3:1 (group 2) or 1:3 (group 3). The doses used are shown below. Each suspension was orally administered at a volumetric dose of 5 ml/kg.
Group 1: IPA 40 mg/kg+IBP 0 mg/kg
Group 2: IPA 30 mg/kg+IBP 10 mg/kg
Group 3: IPA 10 mg/kg+IBP 30 mg/kg
Group 4: IPA 0 mg/kg +IBP 40 mg/kg
Six-week-old male SD strain rats (Nippon SLC) fasted 24 hours before experiment were used in groups of 10. They were grouped such that the four groups were uniform in mean body weight.
First, the pain threshold value before thermal stimulation was measured (0 hour value). Then, heat edema was caused on the right hind leg of the rat by immersing said leg in hot water (54° C.) just to the fibular ankle (boundary showing sudden change in hair density) for 12 seconds. Two hours later, the pain threshold of the right hind leg was measured (2 hours value), immediately followed by test substance administration. After the lapse of two further hours, the pain threshold of the right hind leg was measured (4 hours value).
The percent pain removal was calculated by the following formula: [formula]

SMILES | Pain removal (%) (IPA 0 mg/kg + IBP 40 mg/kg PO) | Pain removal (%) (IPA 40 mg/kg PO + IBP 0 mg/kg)
CC(C)Cc1ccc(C(C)C(=O)O)cc1 (centres unmarked) [IBP, 2-(4-isobutylphenyl)propionic acid] | 32.3 ± 7.5% | 
Cc1c(C(C)C)c(=O)n(-c2ccccc2)n1C [IPA, 4-isopropyl-2,3-dimethyl-1-phenyl-3-pyrazolin-5-one] |  | 25.8 ± 15.9%
